PubChem BioAssay (NCI)
Values joined by “and” are separate entries in the source; they are usually repeats but may differ in a detail not shown here. Identical values can stand only once.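 Dose response: 5 concentrations. Exposure: 48 h. Format: 96-well plates. Endpoint: linear interpolation; highest concentration if not reached. GI50 = concentration required for 50% inhibition of growth. TGI is the concentration that stops growth completely.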

Key:
Assay in all cases: NCI tumour cell line growth inhibition, 48 h
BT-549 breast = test system: BT-549 breast
MDA-N = test system: MDA-N
OVCAR-4 ovarian = test system: OVCAR-4 ovarian
HCT-15 colon = test system: HCT-15 colon
MCF7 breast = test system: MCF7 breast
UACC-62 melanoma = test system: UACC-62 melanoma
M14 melanoma = test system: M14 melanoma
SF-539 CNS = test system: SF-539 CNS
SK-MEL-2 melanoma = test system: SK-MEL-2 melanoma
LOX IMVI melanoma = test system: LOX IMVI melanoma

Row | Structure (SMILES) | TGI (BT-549 breast) [µM] | TGI (MDA-N) [µM] | TGI (OVCAR-4 ovarian) [µM] | TGI (HCT-15 colon) [µM] | TGI (MCF7 breast) [µM] | TGI (UACC-62 melanoma) [µM] | TGI (M14 melanoma) [µM] | TGI (SF-539 CNS) [µM] | TGI (SK-MEL-2 melanoma) [µM] | TGI (LOX IMVI melanoma) [µM] | GI50 (LOX IMVI melanoma) | GI50 (UACC-62 melanoma) | GI50 (BT-549 breast) [µM] | GI50 (OVCAR-4 ovarian) [µM] | GI50 (HCT-15 colon) [µM] | GI50 (MCF7 breast) [µM] | GI50 (M14 melanoma) [µM] | GI50 (SF-539 CNS) [µM] | GI50 (SK-MEL-2 melanoma) [µM]
1 | CC(C)=CCC/C(C)=C/COC(C)(C)C1=CCC(C)CC1 (centres undefined) (tested in a mixture with another compound) | > 100 | > 100 | > 100 | > 100 | > 100 | > 100 | > 100 | 29.3 | – | – | – | – | – | – | – | – | – | – | –
2 | CC12CCC3C(CCC4CC(OC(=O)Cc5ccc(N(CCCl)CCCl)cc5)CCC43C)C1CCC(=O)N2 (centres undefined) | – | – | 29.3 | 28.3 | – | – | 32.2 | 29.4 | 29.8 | – | – | – | – | – | – | – | – | – | –
3 | Cc1cc(-c2nc3ccccc3s2)ccc1NC(=O)[C@@H](N)CCCCN | 24.1 | 9.75 | 21.3 | 24.3 | 11.7 | 29.2 | 7.88 | – | 30 | 5.92 | – | – | – | – | – | – | – | – | –
4 | CC(C(=O)N1C(=O)N(C(=O)C(C)C(O)c2ccccc2)C2CCCCC21)C(O)c1ccccc1 (centres undefined) | – | – | > 100 | > 100 | – | > 100 | > 100 | – | > 100 | > 100 | – | – | – | – | – | – | – | – | –
5 | O=C(O)c1cc(-c2ccc3c(O)c(O)ccc3c2)ccc1O | – | > 75 | 27 | > 75 | 25.1 | > 75 | 70.6 | > 75 | > 75 | 34.9 | – | – | – | – | – | – | – | – | –
6 | CC(C)(C)OC(=O)NCCC(N)=S | > 100 | > 100 | – | > 100 | > 100 | > 100 | > 100 | > 100 | – | – | – | – | – | – | – | – | – | – | –
7 | CC1=C2C(=C[C@H]3[C@]4(C)CCCC(C)(C)[C@H]4CC[C@]34O[C@H]24)OC1=O | > 100 | > 100 | > 100 | > 100 | > 100 | > 100 | > 100 | – | > 100 | – | – | – | – | – | – | – | – | – | –
8 | CSC(=Nc1ccccc1)N(c1ccccc1)c1nc(=[N+](C)C)ss1 | – | – | 21.5 | 13.7 | – | 1.74 | 2.5 | 14.8 | 11.7 | 12.7 | – | – | – | – | – | – | – | – | –
9 | COc1c(O)c2c3c(c(C)cc(O)c3c1O)C(=O)C(O)(C(C)(C)C(C)=O)C2=O (centres undefined) | – | – | > 100 | > 100 | – | > 100 | > 100 | > 100 | > 100 | > 100 | 33 µM and 67.6 µM | 39.9 µM and > 100 µM | – | – | – | – | – | – | –
10 | N#CC(N=Nc1ccc(Cl)cc1)c1nc2ccccc2o1 (centres undefined) | 95.6 | > 100 | > 100 | > 100 | > 100 | > 100 | > 100 | 56.2 | 88.7 | – | – | – | – | – | – | – | – | – | –
11 | COc1ccc(CC2c3c(cc(OC)c(OC)c3OC)CCN2C)cc1OC (centres undefined) | – | – | > 100 | > 100 | – | – | > 100 | > 100 | > 100 | – | – | – | – | – | – | – | – | – | –
12 | CC(O)CCCOC(c1ccccc1)(c1ccccc1)c1ccccc1 (centres undefined) | – | 31.7 | 28.1 | 29.8 | 28.3 | 27 | 29.1 | 31.2 | 29.5 | 30.4 | – | – | – | – | – | – | – | – | –
13 | Cc1cn(-c2cc(C(=O)Nc3cccc(-n4ccc5c(NC(=O)c6ccccc6)nccc54)c3)cc(C(F)(F)F)c2)cn1 | 10 | – | 18 | 4.71 | 2.39 | 12.7 | 3.29 | 1.51 | 11.9 | 2.07 | 0.379 µM | 0.366 µM | 0.72 | 1.17 | 0.29 | 0.361 | 0.452 | 0.332 | 0.342
14 | CC(=O)OCC1OC(n2cc(I)c(=O)[nH]c2=O)C(OC(C)=O)C(OC(C)=O)C1OC(C)=O (centres undefined) | – | – | > 100 | > 100 | – | > 100 | > 100 | – | > 100 | > 100 | – | – | – | – | – | – | – | – | –
15 | CCOC(CNCCC(=O)OC)OCC | – | > 10 | > 10 | > 10 | > 10 | > 10 | > 10 | > 10 | > 10 | > 10 | – | – | – | – | – | – | – | – | –
16 | C=C1c2cc3c(cc2CC12Cc1cc4c(cc1C2=O)CCC4)CCC3 (centres undefined) | – | > 100 | > 100 | > 100 | > 100 | – | > 100 | > 100 | > 100 | > 100 | – | – | – | – | – | – | – | – | –
17 | O=[N+]([O-])c1ccc(/C=C/c2cc(-c3ccccc3)nc3ccc4ccccc4c23)cc1 | – | > 100 | > 100 | > 100 | > 100 | > 100 | > 100 | > 100 | – | > 100 | – | – | – | – | – | – | – | – | –
18 | S=C(/N=c1\sc(Nc2ccc(Cl)cc2)nc2sc3c(c12)CCN(N1CCc2c(sc4nc(Nc5ccc(Cl)cc5)s/c(=N\C(=S)Nc5ccc(Cl)cc5)c24)C1)C3)Nc1ccc(Cl)cc1 | > 100 | 30.8 | – | > 100 | > 100 | 48 | > 100 | 35.6 | 52.2 | – | – | – | – | – | – | – | – | – | –
19 | CCOC(=O)c1c(-c2ccccc2)c(-c2ccccc2)cn1C | > 10 | > 10 | > 10 | > 10 | – | > 10 | > 10 | > 10 | > 10 | – | – | – | – | – | – | – | – | – | –
20 | Clc1ccc(CSCCc2ccncc2)cc1Cl | 42.6 | 46.5 | 98.7 | 56.7 | 35.7 | 29.6 | 32.5 | 31.5 | 30.8 | – | – | – | – | – | – | – | – | – | –
21 | CC1=NN(C(=O)CC(=O)Nc2ccccc2F)C(=O)C1N=Nc1ccccc1[N+](=O)[O-] (centres undefined) | – | – | > 100 | > 100 | – | 69 | > 100 | > 100 | > 100 | – | – | – | – | – | – | – | – | – | –
22 | CCC1=CC2CN3Cn4c(c(COCc5c6n(c7ccccc57)CN5CC7C=C(CC)C5C6(C(=O)OC)C7)c5ccccc54)C(C(=O)OC)(C2)C13 | – | – | > 100 | > 100 | – | > 100 | > 100 | – | > 100 | > 100 | – | – | – | – | – | – | – | – | –
23 | NNC1=N/C(=C\c2ccco2)C(Cl)=N1 | – | > 100 | 75.8 | > 100 | > 100 | – | > 100 | 57.4 | > 100 | 70.8 | – | – | – | – | – | – | – | – | –
24 | CC(=O)Oc1cc(C(F)(F)F)ccc1C(=O)OC1(C)OC(=O)c2ccc(C(F)(F)F)cc2O1 (centres undefined) | > 100 | > 100 | > 100 | > 100 | > 100 | > 100 | > 100 | > 100 | – | > 100 | – | – | – | – | – | – | – | – | –
